Assay type in all cases: physicochemical
Data set [1] can be described thus: Experimental Example 1: residual ratio of bulk powders after storage. As to conditions: bulk powder left at 40° C. and 75% RH in atmospheric air for 1 month. As to the method: After the bulk powder of the compound A and sodium ascorbate were left at 40° C. and 75% RH in atmospheric air for 1 month, their residual ratios were measured. As a result, the residual ratio of the compound A was 89.7% (W/W) and the residual ratio of sodium ascorbate was 99.0% (W/W).
The quantitative determination of the compound A was carried out by a HPLC method under the following conditions: • solvent: acetonitrile, • measurement wavelength: 287 nm, • column: CHIRALCEL OJ-R 4.6×150 mm (manufactured by Daicel Chemical Industries, Ltd. CPI Co.), • mobile phase: a mixed (16:9) solution of acetonitrile/10 mM ammonium acetate aqueous solution, • oven temperature: around 25° C.
The quantitative determination of sodium ascorbate was carried out by iodine titration method (solvent: metaphosphoric acid solution (1→50), indicator: starch reagent solution).

Data set [2] in a line: Experimental Example 2: stability of tablet vs bulk powder, 60° C. 2 weeks, HPLC. The method, then: The tablet obtained in Example 1 was put in a capped glass bottle and sealed. After storage at 60° C. for 2 weeks, the contents of the compound A and the related substances in the tablet were measured. Similarly, the bulk powder used for production of the tablet in Example 1 was stored under the same conditions and then the contents of the compound A and the related substances were measured. A comparison of stabilities between the formulated tablet and the bulk powder was made.
(§1) Measurement of the contents of the compound A and the related substances was carried out by a HPLC method under the following conditions: • solvent: water/acetonitrile mixed solution (4:6), • measurement wavelength: 287 nm, • column: XTerra MS C18 3.5 μm 4.6 mm×150 mm (manufactured by Waters Co., Ltd.), • mobile phase: a gradient of 10 mM ammonium acetate solution/acetonitrile mixed solution (4:3) and acetonitril/10 mM ammonium acetate solution mixed solution (9:1), and • oven temperature: around 40° C.

The nature of data set [3]: Experimental Example 3: stability of tablets with/without sodium ascorbate, 40° C. 1 month, HPLC. The method, then:
as §1
The equilibrium moisture content (ERH) of each tablet was measured by the following method. The results were 3.0% and 3.4%, respectively.
These tablets were put in a capped glass bottle and sealed. After storage at 40° C. for 1 month, the contents of the compound A and the related substances were measured. The content of the compound A was measured in the same manner as the measurement method in Experimental Example 2, except that a water/acetonitrile mixed solution (4:6) was used as a solvent. The measurement of the related substances was carried out in the same manner as […].

Setting [4] is: initial: immediately after production.
[5] abbreviates: sealed capped glass bottle, after 2-week storage at 60° C.
Setting [6] is: content in the bulk used for Examples 5 and 7.

Consider `O=C1O[C@H]([C@@H](O)CO)C([O-])=C1O.[Na+]` [sodium ascorbate], for which the residual ratio in data set [1] is listed as 99.0 % (W/W).

For `COc1cc2c(cc1OC)CN(c1c(C)c(C)c3c(c1C)[C@@H](c1ccc(C)cc1)C(C)(C)O3)C2` [compound A, (R)-(+)-5,6-dimethoxy-2-[2,2,4,6,7-pentamethyl-3-(4-methylphenyl)-2,3-dihydro-1-benzofuran-5-yl]isoindoline], the residual ratio in data set [1] is on record as 89.7 % (W/W). Besides, in data set [2] (setting [4]), the “Related substance C” value came to 0.24%, the “Related substance D” value is 0.32%, the “Related substance E” value is 0.13% and the “Related substance F” value came to 3.01%. In data set [2] (setting [4]), the “related substance A” value is 0.46% and the residual ratio stood at 100.0%. Further, in data set [2] (setting [5]), the “Related substance C” value came to 1.13%, the “Related substance D” value is given as 2.12%, the “Related substance E” value came out at 0.78% and the “Related substance F” value worked out at 10.41%. In addition, in data set [2] (setting [5]), the “related substance A” value was 1.74%, the “related substance B” value came out at 0.59% and the residual ratio was found to be 87.9%. Also, in data set [3] (setting [6]), the “Related substance C” value worked out at 0.40%, the “Related substance D” value was 0.43%, the “Related substance E” value turned out to be 0.08% and the “related substance A” value is given as 0.31%. Further, the “related substance B” value in data set [3] (setting [6]) amounted to 0.08%. Moreover, the “related substance A” value in data set [3] (content in the bulk used, last item of the list A to F (second mention of A)) is reported as 2.69%.

These data come from US20050118202A1, “Solid compositions containing compounds unstable to oxygen and method for stabilization thereof” (priority 2001, published 2005).
